Molecular target: T1, survivin (Homo sapiens, UniProt O15392)
T1 construct: transferred to the survivin1-142 construct used in the present study; His8 tag (pHIS8 vector, thrombin-cleavable); made in house; host or cells: E. coli BL21(DE3) star
Assay: Biolayer interferometry, immobilized EZH2 peptide, survivin as analyte
Type: binding
Procedure: EZH2_178-211 peptide from previous peptide microarray experiments were used as immobilized ligands using amine reactive second-generation biosensor (AR2G, Fortebio, Fremont, CA, USA). Ethanolamine was used to quench unbound AR2G surface to prevent non-specific interactions. The biosensor was incubated in MQ water for 15 minutes before use in the Octet instrument (Fortebio, Fremont, CA, USA) with the following settings: equilibration in water for 60 s and 1000 rpm shaking, activation in EDC/s-NHS for 300 s at 1000 rpm, peptide immobilization in immobilization buffer pH 6.0 (Fortebio) for 900 s and 1000 rpm (50 μM for the peptide), quenching with 1 M ethanolamine for 300 s and 1000 rpm, baseline measurement in survivin SEC buffer for 600 s and 1000 rpm, association with survivin (100 nM, 33.3 nM, 11.1 nM, and 3.7 nM concentrations) as the experiment analyte for 600 s and 1000 rpm, and dissociation step in survivin SEC buffer for 1200 s and 1000 rpm. The assay was performed at 30°C. The reference wells and reference biosensors were subtracted.
Δλ(t) values were converted to dimensionless quantities by dividing the wavelength shifts with 1 nm prior to the analysis. To develop the model, we tentatively assumed Langmuir’s 1:1 model.[85] The kinetic modelling was performed with the pymc3 python package[66] using a Bayesian model: p(KD,app|lower=10^−15,upper=10^−3)=1/upper−lower p(k−1|lower=10^−20,upper=10)=1/upper−lower k1=k−1/KD,app p(A|lower=10^−6,upper=10)=1/upper−lower p(ε|lower=10^−6,upper=1)=1/upper−lower p(Δλ(0)|μ=⟨Δλi⟩,σ=1/10∑(Δλi−⟨Δλi⟩)^2/n)=1/2πσe^−1/2σ(Δλ(t)−μ)^2;Δλ(0)∈[10^−20,+∞]
The association and dissociation phases were modelled simultaneously, and the probability of wavelength shift during association phase was modeled as: p(Δλ(t)|μ=Ac/KD,app+c(1−e^−(k1c+k−1)t),σ=ε)=1/2πσe^−1/2σ(Δλ(t)−μ)^2
The probability of wavelength shift during the dissociation phase was modelled as: p(Δλ(t)|μ=Δλ(0)e^−k−1t,σ=ε)=1/2πσe^−1/2σ(Δλ(t)−μ)^2, where A and k1 are the amplitude and rate constant of the exponential association process, respectively. The concentration of the analyte is c and KD,app is the apparent dissociation constant. The dissociation rate constant is marked with k-1. ε represents the standard deviation of Δλ(t) . The total amplitude of wavelength shift is the wavelength shift at the beginning of the dissociation phase ( Δλ(0) ). Its prior distribution is modeled by a truncated normal distribution with parameters based on an empirical Bayes estimate of the starting observations. The data points in the interval 0 to 1 s are represented by the index i. The residual plots from the Bayesian model used in the BLI experiment with peptide EZH2_172-211 and survivin are shown in Figure S6.

T1 sequence (O15392 whole entry): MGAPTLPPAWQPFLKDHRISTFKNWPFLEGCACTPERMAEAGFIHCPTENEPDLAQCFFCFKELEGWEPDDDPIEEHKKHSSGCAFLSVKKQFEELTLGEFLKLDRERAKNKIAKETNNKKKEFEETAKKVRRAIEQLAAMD

VELVNALGQYNDDDDDDDGD DPEEREEKQKDLEDHRDDKE [EZH2_172-211, PRC2-derived peptide, EZH2 residues 172–211, synthesized by Biomatik]
BLI interaction (in words) (EZH2_172-211-coated sensors, survivin 100, 33 and 11 nM): Survivin interacted with EZH2_172-211-coated sensors at concentrations of 100, 33, and 11 nM | apparent dissociation constant (in words) (summary of posterior parameters, when the apparent dissociation constant is well defined): nanomolar interaction | A (amplitude of association) (survivin 3.7 nM, posterior mean ± SD): 0.18 ± 0.21 nm | A (amplitude of association) (survivin 33 nM, posterior mean, SD 1.8×10-4): 0.11 nm | A (amplitude of association) (survivin 100 nM, posterior mean, SD 1.1×10-4): 0.23 nm
